Test results from patent US20240164373A1, “ANTIMICROBIAL PERFUMING CONSUMER PRODUCTS” (Firmenich SA, priority 2021, published 2024).
Values after ≈ are worked out from the molar mass of the structure shown.

Key:
Type in all cases: cell-based
[1] = test system: Staphylococcus aureus ATCC 6538; assay: MIC test in 96 well plates (broth dilution, turbidity); details: ATCC6538, average of three replicates, MH broth, sample in ethanol, 37° C. overnight, read-out: Minimal inhibitory concentration (ppm) Staphylococcus aureus ATCC 6538
[2] = test system: Escherichia coli ATCC 25922; assay: as above; details: ATCC25922, average of three replicates, MH broth, sample in ethanol, 37° C. overnight, read-out: Minimal inhibitory concentration (ppm) Escherichia coli ATCC 25922
[3] = test system: Corynebacterium tuberculostearicum C1; assay: as above; details: average of three replicates, BHI-TW80 broth, sample in DMSO, read-out: Minimal inhibitory concentration (ppm) Corynebacterium tuberculostearicum C1
Method: Bacterial suspension of the Corynebacterium tuberculostearicum C1 strain was prepared as follows: Stock culture (stored at −80° C.) was subcultured onto tryptic soy agar plates with 0.5% Tween 80 (TSA-TW80), and subsequently incubated at 37 °C for 48 h. The primary cultures were subcultured again onto TSA-TW80 to prepare the secondary cultures. One single colony of the secondary culture was then selected and used to inoculate 50 ml brain heart infusion broth with 0.5% Tween 80 (BHI-TW80). The inoculated broth was incubated at 37° C. and 180 rpm overnight. Aliquots (2 mL) of the overnight culture were inoculated into 50 ml of fresh BHI-TW80 broth media, and incubated at 37° C., 160 rpm. When the OD600 nm reached the target value of 4.0, cells were harvested by centrifugation at 5000 rpm for 10 min, and then resuspended in the fresh BHI-TW80 broth media at the same volume before the centrifugation. Aliquots (1 ml) of each cell suspension were diluted in 200 ml of fresh BHI-TW80 broth media as the bacterial solutions for the MIC test.
Sample solutions of test materials and reference material were prepared in ethanol for MIC test for E. coli and S. aureus strains or in DMSO for C. tuberculostearicum and C. acnes strains. In brief, stock solutions of 1% and 20% were prepared in each solvent, and then seven serial dilutions of each stock solution were prepared in each solvent to obtain a total of 16 solutions of the test material or the reference material. Aliquot (10 μl) of each solution was used for MIC test. The tested final concentrations of each material were 29, 44, 66, 99, 148, 222, 333, 500, 590, 900, 1300, 2000, 3000, 4500, 6700, 10000 ppm.
MIC test were performed in 96 well plates. […] Column 1 contained bacterial solution only (the positive growth control), and column 12 contained growth media only (the negative growth control). […]
Minimal inhibitory concentration (MIC) was determined as the lowest concentration where no growth was observed. Average MIC value of the three replicates was calculated against each strain.

[4] = test system: Cutibacterium acnes DSM 1897; assay: MIC test in 96 well plates (broth dilution, turbidity), anaerobic strain; details: DSM1897, average of three replicates, WC broth, sample in DMSO, read-out: Minimal inhibitory concentration (ppm) Cutibacterium acnes DSM 1897
[5] = test system: Escherichia coli DSM 787; assay: MIC test in 96 well plates (broth dilution, turbidity); details: DSM787, average of three replicates, MH broth, sample in ethanol, 37° C. overnight, read-out: Minimal inhibitory concentration (ppm) Escherichia coli DSM 787

Row | SMILES | MIC [1] [µg/mL] | MIC [2] [µg/mL] | MIC [3] [µg/mL] | MIC [4] [µg/mL] | MIC [5] [µg/mL]
1 | CCC=C(C)C(O)C(C)CC (stereo not drawn) [3,5-dimethyl-5-octen-4-ol] | 1530 (≈ 9810 µM) | 3500 (≈ 22400 µM) | 2670 (≈ 17100 µM) | 1770 (≈ 11300 µM) | –
2 | CC(CCO)CCc1ccccc1 (stereo not drawn) [3-methyl-5-phenyl-1-pentanol] | 185 (≈ 1040 µM) | – | 200 (≈ 1120 µM) | 259 (≈ 1450 µM) | 360 (≈ 2020 µM)
3 | CC(O)CC(C)CCc1ccccc1 (stereo not drawn) [4-methyl-6-phenyl-2-hexanol] | 173 (≈ 900 µM) | > 10000 | 1300 (≈ 6760 µM) | 148 (≈ 770 µM) | –
